Data from paper PMC9032233, “2-{5-[(Z,2Z)-2-Chloro-3-(4-nitrophenyl)-2-propenylidene]-4-oxo-2-thioxothiazolidin-3-yl}-3-methylbutanoic Acid as a Potential Anti-Breast Cancer Molecule” (International Journal of Molecular Sciences, 2022).
Read-outs that look alike come from different tables or passages of the source.

Key:
caspase-9 [1] = test: Caspase-9 concentration in MDA-MB-231 cell lysates (ELISA); format: cell-based, human; conditions: 24 h, control 65.073 ng/mL
Experimental: (§1) High sensitivity assay kits (EIAab Science Co., Ltd., Wuhan, China; Abcam plc., Cambridge, United Kingdom; Cloud-Clone Corp., Katy, TX, USA) were used to determine the concentrations of selected proteins in cell lysates after 24 h incubation with novel compound and reference drug in 1 µM and 5 µM concentrations. In brief, after trypsinization, cells were washed thrice with cold PBS and centrifuged at 1000× g for 5 min at 4 °C. Then, cells (1.5 × 10^6) were suspended in lysis buffer for whole-cell lysates. After the second centrifugation, cellular supernatants were frozen immediately at −70 °C. Untreated cancer cells were taken as a control.
(§2) The microtiter plates provided in the kits were pre-coated with an antibody specific to the analyzed antigen. The tests were carried out according to the manufacturer’s protocols.

topoisomerase II = test: Topoisomerase II concentration in MDA-MB-231 cell lysates (ELISA); format: cell-based, human; conditions: 24 h, control 2.700 ng/mL
Experimental: as §1, §2

Beclin-1 = Beclin-1 concentration in MDA-MB-231 cell lysates (ELISA); format: cell-based, human; conditions: 24 h, control 3.605 ng/mL
Experimental: as §1, with “after 24 h incubation with novel compound and reference drug in 1 µM and 5 µM concentrations.” left out
as §2

LC3B [2] = test: LC3B concentration in MCF-7 cell lysates (ELISA); format: cell-based, human; conditions: 24 h, control 1.194 ng/mL
Experimental: as §1, with “after 24 h incubation with novel compound and reference drug in 1 µM and 5 µM concentrations.” left out
as §2

caspase-9 [3] = test: Caspase-9 concentration in MCF-7 cell lysates (ELISA); format: cell-based, human; conditions: 24 h, control 120.913 ng/mL
Experimental: as §1, §2

MCF-7 cancer cells = test: [3H]-thymidine incorporation assay, MCF-7; format: cell-based; conditions: Homo sapiens
Experimental: The antiproliferative properties of the newly synthesized compound were investigated through the [^3H]-thymidine incorporation assay, as described in the literature. Cells culture was exposed to various concentrations of Les-3331 acid and reference drug for 24 h. Thereafter, cells were washed with PBS and 1 mL of fresh medium was added to each well. Then, 0.5 µCi of radioactive [^3H]-thymidine was appended, and the incubation continued for four hours. After the following incubation, the liquid was aspirated and the plate was placed on ice. Cells were washed twice with 1 mL of 0.05 M Tris-HCl buffer comprising 0.11 M NaCl, then twice after that with 1 mL of 5% TCA acid (Stanlab, Lublin, Poland). Finally, the cells were dissolved with 1 mL of 0.1 M NaOH with 1% SDS (Sigma-Aldrich, St. Louis, MO, USA) at room temperature (RT). The resulting cell lysates were transferred into scintillation vials containing 2 mL of scintillation fluid. The radioactivity was determined using Scintillation Counter 1900 TR, TRI-CARB (Packard, Perkin Elmer, Inc., San Jose, CA, USA). The intensity of DNA biosynthesis in cells was expressed in dpm of radioactive thymidine incorporated in the DNA. The radioactivity observed in untreated control cells was taken as 100%. Values from the tested compounds were expressed as a percentage of the control value.

[4] = system: MDA-MB-231 human breast cancer cells; test: MTT cell viability assay, MDA-MB-231; format: cell-based; conditions: MDA-MB-231, MTT, 24 h incubation
Experimental: Cell culture MCF-7, MDA-MB-231 human breast cancer cells, and fibroblasts skin cells were purchased from the ATCC—American Type Culture Collection. All cell lines were maintained in DMEM (Corning, Kennebunk, ME, USA). The medium was supplemented with 10% fetal bovine serum—FBS (Eurx, Gdansk, Poland) and 1% antimicrobial substances: penicillin–streptomycin (Corning, Kennebunk, ME, USA). The incubator asserted appropriate growth conditions required for these cell lines: 5% of CO2, at 37 °C, with the humidity between 90–95%. Cells were seeded in 100 mm round dishes. An amount of 0.05% trypsin containing 0.02% EDTA (Corning, Kennebunk, ME, USA) and phosphate-buffered saline (PBS) without calcium and magnesium (Corning, Kennebunk, ME, USA) was used to detach cells from a plate once 80–90% cell confluence was achieved. In the next step, cells were reseeded in six-well plates (density—5 × 10^5 of cells per well) in 1 mL of DMEM after a 24 h incubation used in the presented tests.
To examine the effect of Les-3331 on cell viability, the MTT assay was performed. […] The absorbance was measured using Spectrophotometer UV-VIS Helios Gamma (Unicam/ThermoFisher Scientific Inc., Waltham, MA, USA) at a wavelength of 570 nm. The obtained absorbance in untreated control cells was taken as 100%, while the survival of the cells incubated with tested compounds presented as a percentage of the control value.

MCF-7 cells = test: Annexin V binding assay (flow cytometry), MCF-7; format: cell-based, human; conditions: 24 h
Experimental: The effect of Les-3331 and reference drug on the induction of apoptosis process in human breast cancer cell lines was evaluated using a flow cytometer (BD FACSCanto II, Becton Dickinson Biosciences Systems, San Jose, CA, USA) and Annexin V binding Apoptosis Detection Kit II (BD Biosciences, San Diego, CA, USA). The Les-3331 and reference drug were used in 1 µM and 5 µM concentrations. The test was carried out after 24 h incubation with the tested compounds according to the manufacturer’s protocol and was previously described by our research group. Analysis of the obtained results was performed using FACSDiva software (version 6.1.3, BD Biosciences Systems, San Jose, CA, USA). The equipment was calibrated with BD Cytometer Setup and Tracking Beads (BD Biosciences, San Diego, CA, USA).

LC3B [5] = test: LC3B concentration in MDA-MB-231 cell lysates (ELISA); format: cell-based, human; conditions: 24 h, control 1.504 ng/mL
Experimental: as §1, with “after 24 h incubation with novel compound and reference drug in 1 µM and 5 µM concentrations.” left out
as §2

| SMILES | Casp-9 concentration (caspase-9 [1]; MDA-MB-231, 1 µM) | Casp-9 concentration (caspase-9 [1]; MDA-MB-231, 5 µM) | Top II concentration (topoisomerase II; MDA-MB-231, 1 µM) | Top II concentration (topoisomerase II; MDA-MB-231, 5 µM) | Beclin-1 concentration (Beclin-1; MDA-MB-231, 1 µM) | LC3B concentration (LC3B [2]; MCF-7, 5 µM) | Casp-9 concentration (caspase-9 [3]; 1 µM) | Casp-9 concentration (caspase-9 [3]; 5 µM) | IC50 (MCF-7 cancer cells; MCF7, read-out: IC50, cell proliferation ([3H]-thymidine incorporation)) | IC50 [4] | % of late and early apoptotic cells (MCF-7 cells; MCF-7, 1 µM) | % of late and early apoptotic cells (MCF-7 cells; MCF-7, 5 µM) | LC3B concentration (LC3B [5]; MDA-MB-231, 1 µM) | LC3B concentration (LC3B [5]; MDA-MB-231, 5 µM) | Beclin-1 concentration (Beclin-1; MDA-MB-231, 5 µM) | LC3B concentration (LC3B [2]; MCF-7, 1 µM) | IC50 (MCF-7 cancer cells; MCF7, MCF-7, 24 h incubation, read-out: IC50, cell proliferation ([3H]-thymidine incorporation)) |
| --- | --- | --- | --- | --- | --- | --- | --- | --- | --- | --- | --- | --- | --- | --- | --- | --- | --- |
| CC(C)C(C(=O)O)N1C(=O)/C(=C/C(Cl)=C/c2ccc([N+](=O)[O-])cc2)SC1=S (stereo not drawn) [Les-3331, 2-{5-[(Z,2Z)-2-chloro-3-(4-nitrophenyl)-2-propenylidene]-4-oxo-2-thioxothiazolidin-3-yl}-3-methylbutanoic acid] | 84.300 ng/mL | 92.523 ng/mL | 2.508 ng/mL | 1.436 ng/mL | 3.007 ng/mL | 1.002 ng/mL | 150.187 ng/mL | 168.243 ng/mL | 5.54 µM | 15.2 µM | 6.5% | 40.4% | 1.178 ng/mL | 0.996 ng/mL |  |  |  |
| COc1cc([C@@H]2c3cc4c(cc3[C@@H](O[C@@H]3O[C@@H]5CO[C@@H](C)O[C@H]5[C@H](O)[C@H]3O)[C@H]3COC(=O)[C@H]23)OCO4)cc(OC)c1O [Etoposide, reference compound] | 86.953 ng/mL | 93.620 ng/mL | 2.175 ng/mL | 2.003 ng/mL | 3.442 ng/mL | 0.779 ng/mL | 154.960 ng/mL | 158.900 ng/mL |  | > 50 µM | 10.7% | 10.7% | 0.784 ng/mL | 0.615 ng/mL | 3.004 ng/mL | 1.157 ng/mL | > 20 µM |
